Assays:
Format in all cases: functional
[1] = test system: Paramphistomum; experiment: Anthelmintic activity against Paramphistomum assessed as mortality at 40 ug/ml after 4 hrs relative to control
[2] = test system: Paramphistomum; experiment: Anthelmintic activity against Paramphistomum assessed as mortality at 40 ug/ml after 1 hr relative to control
[3] = test system: Paramphistomum; experiment: Anthelmintic activity against Paramphistomum assessed as mortality at 80 ug/ml after 2 hrs relative to control
[4] = test system: Paramphistomum; experiment: Anthelmintic activity against Paramphistomum assessed as mortality at 40 ug/ml after 2 hrs relative to control
[5] = test system: Paramphistomum; experiment: Anthelmintic activity against Paramphistomum assessed as mortality at 40 ug/ml after 6 hrs relative to control
[6] = test system: Paramphistomum; experiment: Anthelmintic activity against Paramphistomum assessed as mortality at 80 ug/ml after 4 hrs relative to control
[7] = test system: Paramphistomum; experiment: Anthelmintic activity against Paramphistomum assessed as mortality at 80 ug/ml after 1 hr relative to control
[8] = test system: Paramphistomum; experiment: Anthelmintic activity against Paramphistomum assessed as mortality at 80 ug/ml after 6 hrs relative to control

Row | SMILES | mortality at 40 µg/mL [1] [%] | mortality at 40 µg/mL [2] [%] | mortality at 80 µg/mL [3] [%] | mortality at 40 µg/mL [4] [%] | mortality at 40 µg/mL [5] [%] | mortality at 80 µg/mL [6] [%] | mortality at 80 µg/mL [7] [%] | mortality at 80 µg/mL [8] [%]
1 | COC(=O)Nc1nc2ccc(OCc3nnc(SCC(=O)c4ccc(Cl)cc4)o3)cc2s1 | 40 | 40 | 70 | 40 | 40 | 100 | 50 | –
2 | COC(=O)Nc1nc2ccc(OCc3nnc(SCc4ccccc4)o3)cc2s1 | 50 | 30 | 60 | 30 | 60 | 90 | 30 | 100
3 | COC(=O)Nc1nc2ccc(OCc3nnc(SC)o3)cc2s1 | 20 | 10 | 20 | 10 | 20 | 30 | 10 | 40
4 | CCOC(=O)CSc1nnc(COc2ccc3nc(NC(=O)OC)sc3c2)o1 | 30 | 10 | 30 | 20 | 30 | 50 | 20 | 60
5 | COC(=O)Nc1nc2ccc(OCc3nnc(SC(=O)CCl)o3)cc2s1 | 20 | 10 | 30 | 10 | 20 | 30 | 10 | 50
6 | COC(=O)Nc1nc2ccc(OCc3nnc(SCC(=O)c4ccccc4)o3)cc2s1 | 20 | 10 | 40 | 20 | 30 | 50 | 30 | 70
7 | CCSc1nnc(COc2ccc3nc(NC(=O)OC)sc3c2)o1 | 50 | 10 | 60 | 40 | 80 | 60 | 20 | 80
8 | COC(=O)Nc1nc2ccc(OCc3nnc(SCC(=O)c4ccc(Br)cc4)o3)cc2s1 | 60 | 20 | 100 | 40 | 60 | – | 60 | –
9 | COC(=O)Nc1nc2ccc(OCc3nnc(S)n3-c3ccccc3)cc2s1 | 0 | 0 | 0 | 0 | 0 | 0 | 0 | 0
10 | C=CCSc1nnc(COc2ccc3nc(NC(=O)OC)sc3c2)o1 | 50 | 20 | 40 | 30 | 70 | 100 | 20 | –
11 | COC(=O)Nc1nc2ccc(OCc3nnc(S)n3-c3ccc(Cl)cc3)cc2s1 | 30 | 10 | 20 | 20 | 50 | 50 | 20 | 80
12 | COC(=O)Nc1nc2ccc(OCc3nnc(S)n3-c3ccc(C)cc3)cc2s1 | 0 | 0 | 0 | 0 | 0 | 0 | 0 | 0
13 | O=C(Nc1cc(Cl)cc(Cl)c1O)c1c(O)c(Cl)cc(Cl)c1Cl [OXYCLOZANIDE] | 100 | 30 | 100 | 70 | – | – | 50 | –

Source: ChEMBL document CHEMBL4261525, “Design, facile synthesis and anthelmintic activity of new O-substituted 6-methoxybenzothiazole-2-carbamates. Part II” (2017)
